Drawing on PubChem BioAssay AID602236 (The Scripps Research Institute Molecular Screening Center, 2012), this text covers IC50 for 35 compounds.

The IC50 is the concentration needed to halve the response being measured.

The subject of the test is HEK-293 Gal4-VP16 UAS luciferase reporter, luminescence. Nature of the test: VP16 transactivation inhibitor potency, dose response, counter-screen for SRC1 inhibitor project, cell-based, luminescence, high throughput, SRC1 series (AID 602236).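 Also: inhibitor potency where hits lower luciferase light from Gal4-VP16 transactivation.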

SMILES strings stand for the structures. Active and inactive are the calls of the source.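 The calls were made as follows: active = IC50 of 10 µM or lower; inactive = IC50 above 10 µM.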

Turning to `COc1ccccc1CNC(=O)C(=O)NCCC1CCCCN1S(=O)(=O)c1ccc(C)cc1` (stereo not given), the IC50 was 23.1 µM (inactive).

For the compound `COc1cc([C@@H]2c3cc4c(cc3[C@@H](O[C@@H]3O[C@@H]5CO[C@@H](C)O[C@H]5[C@H](O)[C@H]3O)[C@H]3COC(=O)[C@H]23)OCO4)cc(OC)c1O`, the IC50 is > 35.9 µM (inactive).

For `COc1ccc2c(=O)cc(-c3ccncc3)oc2c1OC`, the IC50 was > 12 µM (inactive).

As to `CN(Cc1cnc2nc(N)nc(N)c2n1)c1ccc(C(=O)NC(CCC(=O)O)C(=O)O)c2ccccc12` (stereo not given), the IC50 is > 35.9 µM (inactive).

In the case of `COc1ccc(Nc2ncnc3ccc(C)cc23)cc1`, the IC50 is 8.4 µM.

With `CCn1c2ccccc2c2cnc(N=CN(C)C)c(C#N)c21`, the IC50 is 28.9 µM (inactive).

For the compound `CCC(=O)c1ccc(Oc2nc3c(c(=O)n(C)c(=O)n3C)n2CC)cc1`, the IC50 is 12.4 µM (inactive).

With `CC1CC(C)C(=NNC(N)=O)C(C(O)CC2CCC(=O)NC2=O)C1` (stereo not given), the IC50 was 12.2 µM (inactive).

Turning to `Cc1ccc2occ(/C=N/NC(=O)c3ccncc3)c(=O)c2c1`, the IC50 was 22.8 µM (inactive).

As for `NS(=O)(=O)c1ccc(Nc2nc(-c3cccnc3)cs2)cc1`, the IC50 was > 35.8 µM (inactive).

Regarding `COc1cccc(CNc2ncnc3ccc(-c4c(C)noc4C)cc23)c1`, the IC50 was > 35.9 µM (inactive).

Consider `CCc1ccc(/C=C2\SC(=S)N(CCCC(=O)NCCCN3CCOCC3)C2=O)cc1`, for which the IC50 was 12.7 µM (inactive).

Turning to `N#Cc1c2ccc(O)cc2n2ccccc12`, the IC50 was > 35.9 µM (inactive).

On to `Cc1cccc(C)c1-c1ccc(CN2C(CC(C)C)C(=O)N(Cc3cn(CC4CCCCC4)nn3)CCS2(=O)=O)cc1` (stereo not given), for which the IC50 was 16.6 µM (inactive).

With `CCn1ccnc1CN(C)Cc1cn[nH]c1-c1ccc(F)cc1F`, the IC50 is 11 µM (inactive).

Take `Fc1cccc(CSc2nnc3ccc(-c4ccncc4)nn23)c1`: the IC50 was > 35.8 µM (inactive).

As for `COc1cc2c(cc1OC)C(NC(=O)C(F)(F)F)CNC2=O` (stereo not given), the IC50 was 10.8 µM (inactive).

Regarding `C=CCn1c(Oc2ccccc2F)nc2c1c(=O)n(C)c(=O)n2C`, the IC50 was 8.46 µM.

For `Cc1nc(N2CCC(C(N)=O)CC2)c2c(-c3cccs3)csc2n1`, the IC50 is 11.6 µM (inactive).

Consider `O=C(CCl)N1N=C(c2ccco2)CC1c1cccs1` (stereo not given), for which the IC50 was 16 µM (inactive).

On to `CC(=O)c1cccc(NC(=O)COc2cc3oc(=O)c(CC(C)O)c(C)c3cc2Cl)c1` (stereo not given), for which the IC50 is > 35.9 µM (inactive).

As to `O=C(N/N=C/c1ccccc1O)/C(=C/c1ccccc1)CCO`, the IC50 was 7.52 µM.

With `NNC(=O)c1cc2ccccc2cc1O`, the IC50 was 18.4 µM (inactive).

In the case of `COc1cccc(C2=CC(=O)CC(C)(C)C2)c1`, the IC50 was 24 µM (inactive).

As to `COc1cc(C(=O)N/N=C(\c2ccccc2)c2ccccn2)cc(OC)c1OC`, the 50% inhibitory concentration (IC50) was 8.61 µM.

Turning to `COc1cccc(NC(=O)CN(C)CC(=O)Nc2ccc(Cl)cc2[N+](=O)[O-])c1`, the IC50 was 20.3 µM (inactive).

As to `CC[C@@]1(O)C(=O)OCc2c1cc1n(c2=O)Cc2cc3c(NC(=O)CN)cccc3nc2-1`, the IC50 was > 35.9 µM (inactive).

Turning to `COc1ccc(NC(=O)CN(C)C(=O)C2(c3ccccc3)CCCC2)cc1`, the IC50 is 36.3 µM (inactive).

`c1ccc(-c2csc3ncnc(NCCN4CCOCC4)c23)cc1`: the IC50 is 18.7 µM (inactive).

Regarding `CCN(c1ccccc1)S(=O)(=O)c1cc(C(=O)Nc2ccc(Br)cc2)ccc1F`, the IC50 was 8.24 µM.

Turning to `O=C(CCl)N(c1ccccc1)C1CCS(=O)(=O)C1` (stereo not given), the IC50 is 16.2 µM (inactive).

Consider `Nc1ncccc1C(=O)OCC(=O)N1CCN(S(=O)(=O)c2ccc(Cl)cc2)CC1`, for which the IC50 is 12.8 µM (inactive).

As to `Cc1ccc2nc(C(F)(F)F)c(C#N)c(N)c2c1`, the IC50 is 10.4 µM (inactive).

`CCN1CCN(C(=S)c2ccc(-c3ccccc3)cc2)CC1`: the IC50 was 29.5 µM (inactive).

Consider `OCCN1CCN(C(=S)c2ccc(-c3ccccc3)cc2)CC1`, for which the IC50 is 30.7 µM (inactive).
